Measurements as given in ChEMBL document CHEMBL1201862, “PubChem BioAssay data set” (2004).
Active and inactive are the calls of the source.

Experiments:
[1] = target: T1, Rac GTPase-activating protein 1 (Homo sapiens, UniProt Q9H0H5); assay: blockers of MgcRacGAP-driven Rac1 GTP hydrolysis – biochemical, ADP Hunter fluorescence, primary and confirmatory, confirmation (AID 624330); type: functional
T1 sequence (Q9H0H5 whole entry): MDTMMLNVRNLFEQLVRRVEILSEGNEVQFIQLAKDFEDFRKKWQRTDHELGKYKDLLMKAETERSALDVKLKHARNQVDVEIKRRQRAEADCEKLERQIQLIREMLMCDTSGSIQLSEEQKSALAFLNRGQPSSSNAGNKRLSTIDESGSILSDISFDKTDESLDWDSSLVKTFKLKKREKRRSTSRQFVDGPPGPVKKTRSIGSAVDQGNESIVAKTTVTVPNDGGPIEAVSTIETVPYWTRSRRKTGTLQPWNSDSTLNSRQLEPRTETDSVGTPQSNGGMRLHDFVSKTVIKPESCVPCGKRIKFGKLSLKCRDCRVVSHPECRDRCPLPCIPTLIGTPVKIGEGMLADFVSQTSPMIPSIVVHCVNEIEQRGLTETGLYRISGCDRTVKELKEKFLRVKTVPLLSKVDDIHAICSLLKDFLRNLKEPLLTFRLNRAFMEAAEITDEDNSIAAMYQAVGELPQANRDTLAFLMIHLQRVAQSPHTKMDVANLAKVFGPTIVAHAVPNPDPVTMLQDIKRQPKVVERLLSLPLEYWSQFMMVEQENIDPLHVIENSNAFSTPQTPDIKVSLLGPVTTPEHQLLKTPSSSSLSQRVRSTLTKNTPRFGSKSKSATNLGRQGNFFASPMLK

[2] = blockers of bursicon-stimulated LGR2 cAMP reporter – cell-based, HEK293, CRE-luciferase reporter, cherry pick, set 2, dose response (AID 743343); type: functional;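 also: transfected cells were stimulated with diluted bursicon conditioned medium after compound addition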
[3] = blockade of melanocortin 4 receptor signaling – cell-based, plate reader, cherry pick, counter-screen for LGR2 antagonist project, dose response (AID 743444); type: functional;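 also: transfected HEK 293 cells stimulated with alpha-MSH peptide; potency of inhibitors of the alpha-MSH evoked signal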
[4] = blockers of HIV-1 envelope-mediated cell-cell fusion – cherry-pick, dose response (AID 652057); type: functional, cell-based
[5] = HIV-1 AD8 envelope cell-cell fusion blockers – cherry-pick, dose response (AID 652062); type: functional, cell-based;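 also: luciferase signal from cell-cell fusion driven by HIV-1 clade B AD8 Env; potency is for inhibitors of fusion seen as a drop in luminescence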
[6] = target: T2, Protein skinhead-1 (Caenorhabditis elegans, UniProt P34707); type: functional
T2 sequence (P34707 whole entry): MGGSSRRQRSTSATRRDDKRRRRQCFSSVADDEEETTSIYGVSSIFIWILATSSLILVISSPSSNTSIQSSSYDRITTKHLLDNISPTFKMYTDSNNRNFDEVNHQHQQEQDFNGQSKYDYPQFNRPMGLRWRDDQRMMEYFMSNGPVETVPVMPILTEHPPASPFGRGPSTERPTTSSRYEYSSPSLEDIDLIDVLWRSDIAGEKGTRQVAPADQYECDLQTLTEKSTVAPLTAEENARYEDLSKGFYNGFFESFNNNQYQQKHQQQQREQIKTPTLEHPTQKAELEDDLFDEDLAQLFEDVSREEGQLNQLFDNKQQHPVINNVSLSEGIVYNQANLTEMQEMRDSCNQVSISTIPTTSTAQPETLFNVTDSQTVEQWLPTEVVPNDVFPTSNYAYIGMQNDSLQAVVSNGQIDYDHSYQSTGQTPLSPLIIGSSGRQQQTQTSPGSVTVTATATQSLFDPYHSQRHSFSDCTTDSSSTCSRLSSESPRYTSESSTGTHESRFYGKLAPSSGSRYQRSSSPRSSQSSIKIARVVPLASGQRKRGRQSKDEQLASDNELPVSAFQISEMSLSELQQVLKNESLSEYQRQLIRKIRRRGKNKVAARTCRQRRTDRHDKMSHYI

[7] = cells; type: functional, cell-based
[8] = viability of HCT116 lacking mutant beta-catenin – cell-based, human colon tumor, dose response (AID 1045); type: functional;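 also: HCT116 colon tumor cells with beta catenin knocked out; cells exposed to compound for 60 hours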
[9] = target: T3, Trace amine-associated receptor 1 (Homo sapiens, UniProt Q96RJ0); assay: Counterscreen for agonists of the human trace amine associated receptor 1 (hTAAR1): Fluorescence-based cell-based high throughput dose response assay to identify hTAAR1 agonist that also desensitize TAAR1 receptor response.; type: functional
T3 sequence (Q96RJ0 whole entry): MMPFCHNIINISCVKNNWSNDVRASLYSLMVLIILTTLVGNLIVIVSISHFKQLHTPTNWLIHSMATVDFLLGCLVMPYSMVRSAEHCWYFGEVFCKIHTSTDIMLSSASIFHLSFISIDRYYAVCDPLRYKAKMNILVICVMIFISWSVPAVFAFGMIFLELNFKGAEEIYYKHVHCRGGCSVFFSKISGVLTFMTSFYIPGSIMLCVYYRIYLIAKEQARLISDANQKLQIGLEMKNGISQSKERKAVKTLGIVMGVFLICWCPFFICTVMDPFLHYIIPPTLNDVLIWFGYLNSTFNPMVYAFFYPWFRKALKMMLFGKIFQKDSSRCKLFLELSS

[10] = Luminescence Cell-Based Dose Retest to Confirm Inhibitors of Cancer Stem Cells. [Related pubchem assays (depositor defined):AID2717, AID2721]; type: functional; conditions: Homo sapiens
[11] = target: T3, Trace amine-associated receptor 1; assay: Fluorescence-based cell-based high throughput dose response assay to identify agonists of the human trace amine associated receptor 1 (TAAR1).; type: functional
[12] = cells; type: functional, cell-based; remark: listed apart in the source
[13] = viability of PTEN-deleted HCT116 cells – cell-based, HCT116 PTEN knockout, dose response (AID 1047); type: functional;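 also: HCT116 colon tumor cells with PTEN knocked out; cells exposed to compound for 60 hours before readout; potency for loss of cell viability measured by luminescence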
[14] = target: T4, Long-chain-fatty-acid--AMP ligase FadD28 (Mycobacterium tuberculosis, UniProt P9WQ59); assay: Fluorescence polarization aasay to screen for inhibitors that compete for the binding of FadD28 to a bisubstrate Measured in Biochemical System Using Plate Reader - 2147-01_Inhibitor_Dose_CherryPick_Activity.; type: functional, Mycobacterium tuberculosis H37Rv
T4 sequence (P9WQ59 whole entry): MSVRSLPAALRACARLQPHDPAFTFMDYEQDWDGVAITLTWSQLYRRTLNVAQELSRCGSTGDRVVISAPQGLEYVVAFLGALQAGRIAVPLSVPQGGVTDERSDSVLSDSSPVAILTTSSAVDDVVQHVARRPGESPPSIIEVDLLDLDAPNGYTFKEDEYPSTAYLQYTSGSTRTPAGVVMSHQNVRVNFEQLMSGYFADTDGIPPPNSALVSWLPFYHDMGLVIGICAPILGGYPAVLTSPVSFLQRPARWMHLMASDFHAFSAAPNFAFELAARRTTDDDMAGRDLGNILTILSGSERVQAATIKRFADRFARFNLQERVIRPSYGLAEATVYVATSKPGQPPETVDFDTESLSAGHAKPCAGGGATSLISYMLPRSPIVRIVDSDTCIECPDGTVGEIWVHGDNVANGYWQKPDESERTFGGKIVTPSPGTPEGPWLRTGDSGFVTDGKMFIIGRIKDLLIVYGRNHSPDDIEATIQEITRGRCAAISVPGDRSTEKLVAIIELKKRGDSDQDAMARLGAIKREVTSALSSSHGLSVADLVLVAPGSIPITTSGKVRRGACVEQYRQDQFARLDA

[15] = target: Genome polyprotein (dengue virus type 2, UniProt P29990); assay: flavivirus cap methylation enzyme inhibition – biochemical, confirmation dose response, primary screen (AID 588689); type: functional
Chain of Genome polyprotein (P29990 2492-3391 limits assumed): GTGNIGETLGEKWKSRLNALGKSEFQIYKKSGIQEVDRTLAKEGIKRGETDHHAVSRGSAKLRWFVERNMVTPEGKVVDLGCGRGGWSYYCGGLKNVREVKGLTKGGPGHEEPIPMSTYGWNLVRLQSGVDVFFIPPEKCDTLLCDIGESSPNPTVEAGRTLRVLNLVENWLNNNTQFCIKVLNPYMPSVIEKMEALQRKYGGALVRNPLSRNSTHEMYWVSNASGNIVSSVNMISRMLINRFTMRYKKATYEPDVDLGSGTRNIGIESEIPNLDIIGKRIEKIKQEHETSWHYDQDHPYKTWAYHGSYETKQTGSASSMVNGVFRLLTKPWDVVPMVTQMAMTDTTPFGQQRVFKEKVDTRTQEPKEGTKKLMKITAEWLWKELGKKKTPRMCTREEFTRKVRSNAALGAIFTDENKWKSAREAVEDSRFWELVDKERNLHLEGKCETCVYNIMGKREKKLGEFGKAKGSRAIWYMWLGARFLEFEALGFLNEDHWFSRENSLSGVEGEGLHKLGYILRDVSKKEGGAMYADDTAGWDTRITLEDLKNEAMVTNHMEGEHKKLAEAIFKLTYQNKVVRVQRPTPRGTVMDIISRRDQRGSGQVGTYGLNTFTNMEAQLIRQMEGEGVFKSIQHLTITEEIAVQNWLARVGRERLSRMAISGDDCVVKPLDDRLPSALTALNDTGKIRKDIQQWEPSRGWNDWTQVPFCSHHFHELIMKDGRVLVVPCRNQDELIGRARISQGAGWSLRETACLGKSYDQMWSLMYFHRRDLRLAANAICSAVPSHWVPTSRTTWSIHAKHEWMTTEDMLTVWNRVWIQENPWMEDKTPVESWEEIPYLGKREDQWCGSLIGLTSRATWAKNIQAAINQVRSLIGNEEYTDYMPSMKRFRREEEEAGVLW

O=c1c(-c2ccc(O)cc2)coc2cc(O)ccc12 [DAIDZEIN]
IC50 [1]: 91.3 µM (active)

Cc1ccc(-c2cc(C(=O)N3CCOCC3)no2)cc1
AC50 [2]: 2.95 µM (active) | AC50 [3]: 2.81 µM (active)

COc1cccc(S(=O)(=O)N(C)C[C@@H]2Oc3cc(C#CCC(C)C)ccc3S(=O)(=O)N([C@H](C)CO)C[C@@H]2C)c1
AC50 [4]: 20.1 µM (active) | AC50 [5]: 17.9 µM (active)

C=CCn1c(SCC(=O)c2c(N)n(C)c(=O)n(C)c2=O)nnc1-c1ccoc1C
IC50 [6]: > 100 µM (inactive)

O=C(Nc1ccc2oc(-c3ccccc3)nc2c1)c1cccnc1
IC50 [6]: > 100 µM (inactive)

Cc1cccc(-c2cc3nc(C)cc(N4CC(C)CC(C)C4)n3n2)c1 (centres undefined)
EC50 [7]: > 29.9 µM (inactive) | EC50 [8]: 43.9 µM (active) | IC50 [9]: > 29.9 µM (inactive) | AC50 [10]: 5.01 µM (active) | EC50 [11]: 7.1 µM (active) | IC50 [12]: > 29.9 µM (inactive) | EC50 [13]: 27.8 µM (active)

O=C(CSc1nc(O)cc(=O)n1-c1ccccc1)Nc1nc2ccccc2s1
AC50 [14]: 32 µM (active)

COc1ccc(C(=O)OCC(=O)c2ccccc2)cc1S(=O)(=O)N1CCOCC1
AC50 [14]: > 100 µM (inactive)

COc1cccc(NC(=O)Cn2c(=O)oc3ccccc32)c1
AC50 [14]: 8.71 µM (active)

NC(Cc1ccc(F)cc1)c1csc(Nc2ccc(S(N)(=O)=O)cc2)n1 (centres undefined)
EC50 [7]: > 29.9 µM (inactive) | IC50 [9]: > 29.9 µM (inactive) | EC50 [11]: 5.18 µM (active) | IC50 [12]: > 29.9 µM (inactive)

COc1ccc2c(c1)Cc1cc(NC(=O)c3ccccc3-c3ccccc3C(=O)O)ccc1-2
IC50 [15]: 46.3 µM (active) | AC50 [14]: 89.9 µM (active)

NC(=O)C1CCN(c2oc(-c3ccccc3F)nc2S(=O)(=O)c2ccc(Cl)cc2)CC1
IC50 [6]: > 100 µM (inactive)
